Test results: the supplement of paper PMC10307832

Experiments:
Assay in all cases: relative viability (nuclei count vs DMSO), 5 days (fraction); higher = more cells survive
[1] = compound: C1=CC=C(C(=C1)C2=CC=C(C=C2)C3=CSC4=C3C(=C(C(=O)N4)C#N)O)O
In short: (§1)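 Viability was read as treated-well nuclei divided by vehicle-well nuclei, using the median across plates. Lung cancer cell lines in 1536-well plates were kept overnight at 37 °C, pinned with five √10-spaced library-drug doses, and after 5 days were Hoechst-stained, imaged at 4× and counted in MetaXpress. Plates passed only with control CV below 25% and at least one doubling.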

Ricolinostat = compound: O=C(CCCCCCNC(=O)c1cnc(N(c2ccccc2)c2ccccc2)nc1)NO [Ricolinostat]
In short: as §1

TGX 221 = compound: CC1=CN2C(=O)C=C(N=C2C(=C1)C(C)NC3=CC=CC=C3)N4CCOCC4 [TGX 221]
In short: as §1

[2] = compound: C1=CC=C(C(=C1)C2=CC=C(C=C2)C3=CSC4=C3C(=C(C(=O)N4)C#N)O)O + COc1cc2c(Oc3ccc(NC(=O)C4(C(=O)Nc5ccc(F)cc5)CC4)cc3F)ccnc2cc1OCCCN1CCOCC1 [Foretinib] (partner 0.25 µM)
In short: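 Values are medians from duplicate plates. Each reflects relative viability, defined as the nuclei count of treated wells over that of vehicle wells. Lung cancer cell lines in 1536-well plates were pin-tool dosed one day after seeding with one drug alone or with a fixed anchor-drug dose plus five library-drug doses (not always all listed) in √10 steps, then fixed, stained and imaged at 4× after 5 days.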

Cell Line: NCI-H1395
- relative viability ([1]; 0.253 µM): 0.925
- relative viability ([1]; 0.8 µM): 0.837
- relative viability ([1]; 2.53 µM): 0.944
- relative viability ([1]; 8 µM): 0.888
- relative viability (Ricolinostat; 0.253 µM): 0.922
- relative viability (Ricolinostat; 0.8 µM): 0.746
- relative viability (Ricolinostat; 2.53 µM): 0.833
- relative viability (TGX 221; 0.08 µM): 0.787
- relative viability (TGX 221; 0.253 µM): 0.801
- relative viability (TGX 221; 0.8 µM): 0.838
- relative viability (TGX 221; 2.53 µM): 0.664
- relative viability (TGX 221; 8 µM): 0.703
- relative viability ([2]; first compound 0.08 µM): 0.867
- relative viability ([2]; first compound 0.253 µM): 0.964
- relative viability ([2]; first compound 0.8 µM): 0.991
- relative viability ([2]; first compound 2.53 µM): 1.01
- relative viability ([2]; first compound 8 µM): 1

Cell Line: NCI-H2170
- relative viability ([1]; 0.08 µM): 1.01
- relative viability ([1]; 0.253 µM): 0.961
- relative viability ([1]; 0.8 µM): 0.953
- relative viability ([1]; 2.53 µM): 0.995
- relative viability ([1]; 8 µM): 0.804
- relative viability (Ricolinostat; 0.08 µM): 0.904
- relative viability (Ricolinostat; 0.253 µM): 0.939
- relative viability (Ricolinostat; 0.8 µM): 1.01
- relative viability (Ricolinostat; 2.53 µM): 1.04
- relative viability (TGX 221; 0.08 µM): 0.959
- relative viability (TGX 221; 0.253 µM): 0.958
- relative viability (TGX 221; 0.8 µM): 0.989
- relative viability (TGX 221; 2.53 µM): 0.93
- relative viability (TGX 221; 8 µM): 0.993
- relative viability ([2]; first compound 0.08 µM): 0.951
- relative viability ([2]; first compound 0.253 µM): 1.03
- relative viability ([2]; first compound 0.8 µM): 0.988
- relative viability ([2]; first compound 2.53 µM): 1.03
- relative viability ([2]; first compound 8 µM): 0.932

Cell Line: NCI-H647
- relative viability ([1]; 0.08 µM): 0.825
- relative viability ([1]; 0.253 µM): 1
- relative viability ([1]; 0.8 µM): 0.903
- relative viability ([1]; 2.53 µM): 0.892
- relative viability ([1]; 8 µM): 0.707
- relative viability (Ricolinostat; 0.08 µM): 0.745
- relative viability (Ricolinostat; 0.253 µM): 0.903
- relative viability (Ricolinostat; 0.8 µM): 0.867
- relative viability (Ricolinostat; 2.53 µM): 0.712
- relative viability (TGX 221; 0.08 µM): 0.856
- relative viability (TGX 221; 0.253 µM): 0.809
- relative viability (TGX 221; 0.8 µM): 0.889
- relative viability (TGX 221; 2.53 µM): 0.738
- relative viability (TGX 221; 8 µM): 0.621
- relative viability ([2]; first compound 0.08 µM): 1.21
- relative viability ([2]; first compound 0.253 µM): 1.22
- relative viability ([2]; first compound 0.8 µM): 1.32
- relative viability ([2]; first compound 2.53 µM): 1.41
- relative viability ([2]; first compound 8 µM): 0.963

Cell Line: CAL-12T
- relative viability ([1]; 0.08 µM): 0.894
- relative viability ([1]; 0.253 µM): 1.24
- relative viability ([1]; 0.8 µM): 0.946
- relative viability ([1]; 2.53 µM): 0.929
- relative viability ([1]; 8 µM): 0.747
- relative viability (Ricolinostat; 0.08 µM): 0.835
- relative viability (Ricolinostat; 0.253 µM): 0.953
- relative viability (Ricolinostat; 0.8 µM): 0.953
- relative viability (Ricolinostat; 2.53 µM): 1.01
- relative viability (TGX 221; 0.08 µM): 0.963
- relative viability (TGX 221; 0.253 µM): 0.936
- relative viability (TGX 221; 0.8 µM): 0.992
- relative viability (TGX 221; 2.53 µM): 0.917
- relative viability (TGX 221; 8 µM): 1.05
- relative viability ([2]; first compound 0.08 µM): 0.951
- relative viability ([2]; first compound 0.253 µM): 1.13
- relative viability ([2]; first compound 0.8 µM): 1.2
- relative viability ([2]; first compound 2.53 µM): 1.19
- relative viability ([2]; first compound 8 µM): 1.01

Cell Line: 201T
- relative viability ([1]; 0.08 µM): 0.945
- relative viability ([1]; 0.253 µM): 0.964
- relative viability ([1]; 0.8 µM): 0.932
- relative viability ([1]; 2.53 µM): 0.94
- relative viability ([1]; 8 µM): 1.02
- relative viability (Ricolinostat; 0.08 µM): 0.876
- relative viability (Ricolinostat; 0.253 µM): 0.978
- relative viability (Ricolinostat; 0.8 µM): 1.02
- relative viability (Ricolinostat; 2.53 µM): 0.93
- relative viability (TGX 221; 0.08 µM): 0.911
- relative viability (TGX 221; 0.253 µM): 0.959
- relative viability (TGX 221; 0.8 µM): 0.979
- relative viability (TGX 221; 2.53 µM): 0.865
- relative viability (TGX 221; 8 µM): 0.876
- relative viability ([2]; first compound 0.253 µM): 1.12
- relative viability ([2]; first compound 0.8 µM): 1.23
- relative viability ([2]; first compound 2.53 µM): 0.988
- relative viability ([2]; first compound 8 µM): 0.954

Cell Line: HCC-366
- relative viability ([1]; 0.08 µM): 0.829
- relative viability ([1]; 0.253 µM): 1.08
- relative viability ([1]; 0.8 µM): 1.07
- relative viability ([1]; 2.53 µM): 1.01
- relative viability ([1]; 8 µM): 0.638
- relative viability (Ricolinostat; 0.08 µM): 0.984
- relative viability (Ricolinostat; 0.253 µM): 1.03
- relative viability (Ricolinostat; 0.8 µM): 1.03
- relative viability (Ricolinostat; 2.53 µM): 0.769
- relative viability (TGX 221; 0.08 µM): 0.942
- relative viability (TGX 221; 0.253 µM): 0.999
- relative viability (TGX 221; 0.8 µM): 1.03
- relative viability (TGX 221; 2.53 µM): 0.957
- relative viability (TGX 221; 8 µM): 1.01
- relative viability ([2]; first compound 0.08 µM): 1.03
- relative viability ([2]; first compound 0.253 µM): 0.974
- relative viability ([2]; first compound 0.8 µM): 0.949
- relative viability ([2]; first compound 2.53 µM): 0.992
- relative viability ([2]; first compound 8 µM): 0.959

Cell Line: NCI-H1944
- relative viability ([1]; 0.08 µM): 0.902
- relative viability ([1]; 0.253 µM): 1.05
- relative viability ([1]; 0.8 µM): 0.94
- relative viability ([1]; 2.53 µM): 0.965
- relative viability ([1]; 8 µM): 0.844
- relative viability (Ricolinostat; 0.08 µM): 0.835
- relative viability (Ricolinostat; 0.253 µM): 1.03
- relative viability (Ricolinostat; 0.8 µM): 0.876
- relative viability (Ricolinostat; 2.53 µM): 0.692
- relative viability (TGX 221; 0.08 µM): 0.82
- relative viability (TGX 221; 0.253 µM): 0.915
- relative viability (TGX 221; 0.8 µM): 0.911
- relative viability (TGX 221; 2.53 µM): 0.883
- relative viability (TGX 221; 8 µM): 0.851
- relative viability ([2]; first compound 0.08 µM): 0.88
- relative viability ([2]; first compound 0.253 µM): 0.863
- relative viability ([2]; first compound 0.8 µM): 0.987
- relative viability ([2]; first compound 2.53 µM): 0.935
- relative viability ([2]; first compound 8 µM): 0.904

Cell Line: NCI-H1651
- relative viability ([1]; 0.08 µM): 0.997
- relative viability ([1]; 0.253 µM): 0.973
- relative viability ([1]; 0.8 µM): 1.07
- relative viability ([1]; 2.53 µM): 1
- relative viability ([1]; 8 µM): 0.821
- relative viability (Ricolinostat; 0.08 µM): 0.913
- relative viability (Ricolinostat; 0.253 µM): 0.936
- relative viability (Ricolinostat; 0.8 µM): 0.971
- relative viability (Ricolinostat; 2.53 µM): 0.966
- relative viability (TGX 221; 0.08 µM): 0.923
- relative viability (TGX 221; 0.253 µM): 0.891
- relative viability (TGX 221; 0.8 µM): 0.953
- relative viability (TGX 221; 2.53 µM): 0.956
- relative viability (TGX 221; 8 µM): 0.879
- relative viability ([2]; first compound 0.08 µM): 0.848
- relative viability ([2]; first compound 0.253 µM): 0.774
- relative viability ([2]; first compound 0.8 µM): 0.924
- relative viability ([2]; first compound 2.53 µM): 0.76
- relative viability ([2]; first compound 8 µM): 0.714

Cell Line: LCLC-97TM1
- relative viability ([1]; 0.08 µM): 0.895
- relative viability ([1]; 0.253 µM): 1.34
- relative viability ([1]; 0.8 µM): 1.02
- relative viability ([1]; 2.53 µM): 1.08
- relative viability ([1]; 8 µM): 1.03
- relative viability (Ricolinostat; 0.08 µM): 0.809
- relative viability (Ricolinostat; 0.253 µM): 1.06
- relative viability (Ricolinostat; 0.8 µM): 0.997
- relative viability (Ricolinostat; 2.53 µM): 0.855
- relative viability (TGX 221; 0.08 µM): 0.97
- relative viability (TGX 221; 0.253 µM): 0.76
- relative viability (TGX 221; 0.8 µM): 1.02
- relative viability (TGX 221; 2.53 µM): 0.863
- relative viability (TGX 221; 8 µM): 0.924
- relative viability ([2]; first compound 0.08 µM): 0.827
- relative viability ([2]; first compound 0.253 µM): 1.16
- relative viability ([2]; first compound 0.8 µM): 1.01
- relative viability ([2]; first compound 2.53 µM): 1.03
- relative viability ([2]; first compound 8 µM): 0.91
